Source: PubChem BioAssay (NCI)
Values joined by “and” are separate entries in the source; they are usually repeats but may differ in a detail not shown here. Equal values may be shown once.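 Step 1: Grow cells in 96-well plates. Step 2: Expose to compound for 48 hours at 5 concentrations. Step 3: Interpolate endpoints linearly; if unreached, use highest concentration. GI50 is the concentration that inhibits growth by half. TGI: concentration producing complete growth inhibition.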 Where a SMILES comes first, the peptide text is derived from it. [ ]: non-standard residue; d: D form. 2Nal = N[CH](Cc1ccc2ccccc2c1)C(=O)O

Key:
Assay in all cases: DTP human tumour cell line panel, 48 h
A498 renal = tested on: A498 renal
HL-60(TB) leukemia = tested on: HL-60(TB) leukemia
M14 melanoma = tested on: M14 melanoma
MALME-3M melanoma = tested on: MALME-3M melanoma
NCI-H460 lung = tested on: NCI-H460 lung
OVCAR-3 ovarian = tested on: OVCAR-3 ovarian
OVCAR-8 ovarian = tested on: OVCAR-8 ovarian
SN12C renal = tested on: SN12C renal
TK-10 renal = tested on: TK-10 renal
RPMI-8226 leukemia = tested on: RPMI-8226 leukemia

SMILES	TGI (A498 renal)	TGI (HL-60(TB) leukemia)	TGI (M14 melanoma)	TGI (MALME-3M melanoma)	TGI (NCI-H460 lung)	TGI (OVCAR-3 ovarian)	TGI (OVCAR-8 ovarian)	TGI (SN12C renal)	TGI (TK-10 renal)	GI50 (A498 renal)	GI50 (HL-60(TB) leukemia)	GI50 (M14 melanoma)	GI50 (MALME-3M melanoma)	GI50 (NCI-H460 lung)	GI50 (OVCAR-3 ovarian)	GI50 (OVCAR-8 ovarian)	GI50 (RPMI-8226 leukemia)	TGI (RPMI-8226 leukemia)	GI50 (SN12C renal)	GI50 (TK-10 renal)
CSc1s[s+]c(SC)c1[O-]	> 100 µM	47.1 µM	75.8 µM	40.6 µM	> 100 µM	67.2 µM	43.7 µM	52.5 µM	> 100 µM	–	–	–	–	–	–	–	–	–	–	–
C=CCSc1n[nH]c(-c2cccs2)n1	> 100 µM	> 100 µM	> 100 µM	> 100 µM	> 100 µM	> 100 µM	> 100 µM	> 100 µM	> 100 µM	> 100 µM	> 100 µM	> 100 µM	> 100 µM	> 100 µM	> 100 µM	> 100 µM	> 100 µM	> 100 µM	> 100 µM	> 100 µM
O=C=Nc1ccc(Cc2ccc(N=C=O)cc2)cc1 (tested in a mixture with another compound)	> 25 µg/mL	–	> 25 µg/mL	> 25 µg/mL	> 25 µg/mL	> 25 µg/mL	> 25 µg/mL	> 25 µg/mL	> 25 µg/mL	> 25 µg/mL	–	> 25 µg/mL	> 25 µg/mL	> 25 µg/mL	> 25 µg/mL	> 25 µg/mL	> 25 µg/mL	> 25 µg/mL	> 25 µg/mL	> 25 µg/mL
COc1ccc(OC)c(CCc2cc(OC)c(OC)cc2C)c1	> 100 µM	–	> 100 µM	> 100 µM	> 100 µM	> 100 µM	> 100 µM	> 100 µM	> 100 µM	–	–	–	–	–	–	–	–	90.1 µM	–	–
COc1ccc(C(=O)C(C(=O)C(=O)Nc2nc3ccc(OC)cc3s2)c2ccc(OC)cc2)cc1 (stereo not given)	> 100 µM	> 100 µM	> 100 µM	> 100 µM	> 100 µM	> 100 µM	> 100 µM	> 100 µM	> 100 µM	–	–	–	–	–	–	–	–	> 100 µM	–	–
Cc1ccc(C(=O)/C=C/c2ccccc2Cl)cc1	72.5 µM	42.8 µM	31.4 µM	53.6 µM	29.1 µM	31 µM	29.6 µM	39.3 µM	61.7 µM	–	–	–	–	–	–	–	–	44.4 µM	–	–
Oc1cccc(C2SCc3nc4ccccc4n32)c1 (stereo not given)	> 100 µM	> 100 µM	–	> 100 µM	> 100 µM	> 100 µM	> 100 µM	> 100 µM	> 100 µM	–	–	–	–	–	–	–	–	> 100 µM	–	–
C=CC1=C(C)C2=NC1=CC1=NC(=C(CC)/C1=C/O)C=C1C=C3C(=O)C(C(=O)OC)C(=C4NC(=C2)C(C)C4CCC(=O)OC/C=C(\C)CCCC(C)CCCC(C)CCCC(C)C)C3=N1 (stereo not given) (tested in a mixture with another compound)	> 100 µM	–	> 100 µM	–	> 100 µM	> 100 µM	> 100 µM	> 100 µM	> 100 µM	–	–	–	–	–	–	–	–	> 100 µM	–	–
c1ccc(-c2cc(-c3cc(-c4ccccn4)[nH]n3)n[nH]2)nc1	> 100 µM	> 100 µM	> 100 µM	> 100 µM	> 100 µM	> 100 µM	> 100 µM	> 100 µM	–	–	–	–	–	–	–	–	–	> 100 µM	–	–
CC(NC(=O)C(N)Cc1ccccc1)C(=O)NC(Cc1ccc(O)cc1)C(=O)NC(Cc1c[nH]c2ccccc12)C(=O)NC(CCCCN)C(=O)NC(C(=O)NC(C)C(=O)NC(Cc1ccc2ccccc2c1)C(N)=O)C(C)C (stereo not given) (H-FAYWKVA[2Nal]-NH2; configuration not given here)	> 12.5 µM and 49.4 µM	> 12.5 µM and 31.9 µM	> 12.5 µM	> 12.5 µM	> 12.5 µM and 52.3 µM	> 12.5 µM and 43.2 µM	> 100 µM	> 100 µM	–	19.4 µM	18 µM	–	–	22.7 µM	18.8 µM	37.2 µM	16.3 µM	> 12.5 µM and 30.4 µM	> 100 µM	–
CN(C)CCCC1(c2ccc(F)cc2)OCc2cc(-c3ccc4cc[nH]c4c3)ccc21 (stereo not given)	–	3.77 µM	3.82 µM	3.32 µM	3.49 µM	3.35 µM	13.8 µM	3.56 µM	4.09 µM	–	1.74 µM	1.88 µM	1.71 µM	1.79 µM	1.74 µM	3.32 µM	2.5 µM	6.04 µM	1.73 µM	2.03 µM
C[C@]12CC[C@@H]3c4ccc(O)cc4CC[C@H]3[C@@H]1CC[C@@H]2NS(=O)(=O)c1cccc(Br)c1	8.45 µM	–	13.7 µM	7.58 µM	6.67 µM	–	16.7 µM	5.73 µM	12.1 µM	1.8 µM	–	3.69 µM	2.27 µM	2.53 µM	–	3.98 µM	3.41 µM	17.3 µM	2.25 µM	3.43 µM
Cc1ccc(NC(=O)SCCC(=O)O)cc1NC(=O)SCCC(=O)O	> 100 µM	> 100 µM	> 100 µM	–	> 100 µM	> 100 µM	> 100 µM	> 100 µM	> 100 µM	–	–	–	–	–	–	–	–	> 100 µM	–	–
COc1ccc2cc(C(=O)/C=C/c3ccc(OC)c(OC)c3)ccc2c1	–	25 µM	25.7 µM	> 100 µM	> 100 µM	> 100 µM	49.7 µM	32.6 µM	> 100 µM	–	2.31 µM	11.2 µM	> 100 µM	7.38 µM	14.8 µM	14 µM	4.09 µM	20.3 µM	13.5 µM	53.1 µM
O=C(O)/C(O)=C1/C=C(c2ccccc2)c2ccccc21	98.9 µM	45.6 µM	45.3 µM	71.3 µM	62.7 µM	–	59.4 µM	61.9 µM	79.8 µM	–	–	–	–	–	–	–	–	56.8 µM	–	–
Cc1ccccc1NC(=O)C(=O)Cc1nc2ccccc2s1	> 100 µM	> 100 µM	> 100 µM	> 100 µM	> 100 µM	> 100 µM	> 100 µM	> 100 µM	> 100 µM	–	–	–	–	–	–	–	–	–	–	–
COc1cc2cc(C(=O)O)[nH]c2cc1OCc1ccccc1	–	> 100 µM	> 100 µM	12.2 µM	> 100 µM	> 100 µM	> 100 µM	> 100 µM	> 100 µM	–	> 100 µM	> 100 µM	2.97 µM	> 100 µM	> 100 µM	> 100 µM	> 100 µM	> 100 µM	> 100 µM	> 100 µM
